# According to patent US5045548A, “Quinolyl methoxy compounds and their use as antiasthmatic agents” (Fujisawa Pharmaceutical Company, Ltd., priority 1987, dated 1991):
# Key:
# [1] = system: Intimal Thickening of Rabbit Carotid Artery; assay: Antiatherosclerotic activity: cuff-induced intimal thickening of rabbit carotid artery; type: in vivo, rabbit (male Japanese white); settings: i.m.; for Intimal thickening index: once a day, 3 weeks, mean ± SE (n = 8)
# Source text: Induction of Intimal Thickening of Rabbit Carotid Artery
# Forty male Japanese white rabbits weighing about 2 kg were used for the test of the compound of Example 40. They were divided into 5 groups of 8 animals: one served as control, and the other 4 as drug dose groups. The rabbits were anesthetized with care not to injure the surrounding tissues. A polyetherylene cuff (1.5 cm long, 2.15 mm inner diameter, 3.25 mm outer diameter) was placed around the artery. The rabbits were maintained for 3 weeks on standard laboratory diet and water ad libitum. The compound of Example 40 and the vehicle (0.5%, w/v methyl cellulose in saline) were given intramuscularly once a day starting from the day of cuff-placement. At the end of the 3rd week, the rabbits were heparinized (500, i.v.), and the artery was removed, washed free of blood with saline, fixed by immersion in 10% formalin and divided into 8 cross-segments about 2 mm long. The segments were embedded in paraffin and cut into transverse sections. These sections were stained with orecin. About 70 transverse sections were prepared form each artery and used for the quantitation of the initimal thickening.
# Quantitation of Intimal Thickening (Intimal Thickening Index)
# The arterial sections were observed by light microscopy and the intimal thickening was scored as follows. 0=no thickening; 1=slight hyperplasia in the subendothelial space with intima media ratio of about 1/10; 2=several layers of cells in the subendothelial space with intima media ratio of about 1/5, or parts of the subendothelial space with more hyperplasia; 3=sever hyperplasia throughout the subendothelial space with intima media ratio of more than 1/3.
# [2] = system: CDE-induced pancreatitis in mice; assay: Effect on experimental pancreatitis in mice (CDE diet-induced, lethal); type: in vivo, mouse (female ICR); settings: for % survival: orally two times a day for 4 days, N = 20, control 15
# Source text: Test III: Effect on experimental pancreatitis in mice
# The effect of 5-lipoxygenase inhibitor, the compound of Example 40 was studied in a lethal form of pancreatitis induced by feeding mice an ehionine-supplemented choline-deficient diet (CDE diet).
# Female ICR mice, aged 3 wk were used in this study. All mice were fed a regular laboratory diet before the experiments. The CDE diet was then substituted for 2 days, and after this period replaced by the regular diet for an additional 6 days.
# The compound of Example 40 was administered orally two times a day for 4 days after the beginning of the CDE diet.
# [3] = system: SRS-A (Slow Reacting Substance of Anaphylaxis) synthesis in rat polymorpholeukocyte (PMN); assay: Inhibitory Activity of SRS-A synthesis in rat polymorpholeukocyte (PMN) using the calcium ionophore A23187 (i-LTC4 by radioimmunoassay); type: cell-based, rat (male Sprague-Dawley); settings: Rattus norvegicus, 0.25 h, 10 μM A23187, 15 min, 37° C.
# Procedure: Test I: Inhibitory Activity of SRS-A (Slow Reacting Substance of Anaphylaxis) synthesis in rat polymorpholeukocyte (PMN) of using the calcium ionophore Male Sprague-Dawley rats weighing 250-300 g were anesthetized with ether and each was injected intraperitoneally with 20 ml of 0.1% clycogen (from Oyster). After 20 hours the rats were sacrificed and PMN were recovered in rinse of the peritoneal cavity with 10 ml Dulbeccos PBS (components in g/L: CaCl2 0.1, KH2 PO4 0.2, MgCl2.6H2 O 0.1, NaCl 8.0, Na2 HPO4.7H2 O 2.16; pH7.4). These rinses were filtered through nylon wool filter and centrifuged for 5 min at 1000 xg. The pellet was suspended in Dulbeccos PBS and centrifuged for 5 min at 1000 xg. The pellet was resuspended in Dulbeccos PBS and adjusted the cell concentration to 10^7 cells/ml with Dulbeccos PBS. Samples were dissolved in ethanol and dispersed in Dulbeccos PBS to give a concentration of 10^-10 -10^-5 M Antibiotic A23187; calcium ionophor ([…] Diagnostics) (hereinafter referred to A23187) in DMSO(10mM) was diluted with Dulbeccos PBS to give the concentration of 1 mM. Aliquots of the cell suspension (1×10^7 cells/ml, 0.98 ml) were equilibrated for 30 min at 37° C. Solution of sample(10 μl) was added and incubated for 15 min at 37° C. before the addition of 10 μl of A23187 solution. Thus the final incubation volume of 1 ml contained approximately 1×10^7 cells, 10^-10 -10^-5 M samples and 10 μM A23187. Incubation with A23187 were continued for 15 min at 37° C. The reactions were terminated by setting the assay tubes in ice bath to chill as rapidly as possible to 4° C. The test tubes were centrifuged at 1500 xg for 5 min at 4° C. and decanted the supernatants into the tubes and kept cold prior to assaying. The concentration of i-LTC4 in the cell-free supernatants from the incubations were determined by specific radioimmunoassay. The mean values of i-LTC4 (these incubations were carried out in duplicate) of each sample were calculated and the effect of samples on the synthesis of the leukotrienes was presented as a percentage of the value in the absence of samples.
# [4] = 0.1 mg/kg, P < 0.01 compared with vehicle control
# [5] = 10 mg/kg, P < 0.01 compared with vehicle control
compound,measurement,setting,value
"CCCCC1(CCCC)CCc2c(OCc3ccc4ccccc4n3)cccc2C1O (single isomer, unassigned; (+)) [Example 40, (+)-2,2-dibutyl-5-(2-quinolylmethoxy)-1,2,3,4-tetrahydro-1-naphthol]","Intimal thickening index, percentage versus the mean value of vehicle control",[1]; 0.01 mg/kg,90.1%
same,Intimal thickening index,[1]; 0.01 mg/kg,1.27 ± 0.17
same,Intimal thickening index,[1]; [4],0.71 ± 0.16
same,"Intimal thickening index, percentage versus the mean value of vehicle control",[1]; [4],50.4%
same,"Intimal thickening index, percentage versus the mean value of vehicle control",[1]; 1.0 mg/kg,65.9%
same,Intimal thickening index,[1]; 1.0 mg/kg,0.93 ± 0.31
same,inhibition of cuff-induced intimal thickening (in words),[1]; 0.01-10 mg/kg,dose-dependently inhibited cuff-induced intimal thickening
same,inhibitory activity on intimal thickening (in words),[1]; 10 mg/kg,exerted significant inhibitory activity
same,Intimal thickening index,[1]; [5],0.60±0.21
same,"Intimal thickening index, percentage versus the mean value of vehicle control",[1]; [5],42.5%
same,% survival,[2]; 10 mg/kg,10%
same,% survival,[2]; 32 mg/kg,35%
same,% survival,[2]; 100 mg/kg,85%
same,prevention of CDE-induced pancreatitis (in words),"[2]; orally, 10-100 mg/kg",prevented the CDE-induced pancreatitis in a dose-dependent manner
same,IC50,[3],6.5 nM
